This is an account of results in patent publication US9777010B2, “Substituted 4-phenylpiperidines, their preparation and use” (THE TRUSTEES OF COLUMBIA UNIVERSITY IN THE CITY OF NEW YORK, priority 2014, dated 2017).

For orientation: IC50 means the concentration needed to halve the response being measured.

One assay concerns serum RBP4 and retinol. Conditions: in vivo; cited from earlier work.
For another assay, the target named is RBP4-TTR interaction (Homo sapiens (Human), UniProt P02753). In words: TR-FRET (HTRF) assay for retinol-induced RBP4-TTR interaction. It is filed as biochemical. Conditions: in the presence of 1 μM retinol; read-out: HTRF assay for antagonists of RBP4-TTR interaction: IC50. As for the experimental part: Binding of a desired RBP4 antagonist displaces retinol and induces hindrance for RBP4-TTR interaction resulting in the decreased FRET signal (FIG. 7). Bacterially expressed MBP-RBP4 and untagged TTR were used in this assay. […] Following cell lysis, recombinant RBP4 was purified from the soluble fraction using the ACTA FPLC system (GE Healthcare) equipped with the 5-ml the MBP Trap HP column. Human untagged TTR was purchased from Calbiochem. […] HTRF assay was performed in white low volume 384 well plates (Greiner-Bio) in a final assay volume of 16 μl per well. The reaction buffer contained 10 mM Tris-HCl pH 7.5, 1 mM DTT, 0.05% NP-40, 0.05% Prionex, 6% glycerol, and 400 mM KF. […] Titration of test compounds in this assay was conducted in the presence of 1 μM retinol. All reactions were assembled in the dark under dim red light and incubated overnight at +4° C. wrapped in aluminum foil. TR-FRET signal was measured in the SpectraMax M5e Multimode Plate Reader (Molecular Device). […] The TR-FRET signal was expressed as the ratio of fluorescence intensity: Flu665/Flu620×10,000.
Background: TR-FRET usually uses a lanthanide donor and a delayed reading to cut background.

As to `CC1=C(/C=C/C(C)=C/C=C/C(C)=C/C(=O)Nc2ccc(O)cc2)C(C)(C)CCC1` [fenretinide, N-(4-hydroxy-phenyl)retinamide], the “serum RBP4 and retinol” value with serum RBP4 and retinol was “reduce serum RBP4 and retinol”.
`COCCN1CCc2c(C(=O)N3CCC(c4cccc(F)c4C(F)(F)F)CC3)n[nH]c2C1` [Compound 77, (4-(3-Fluoro-2-(trifluoromethyl)phenyl)piperidin-1-yl)(6-(2-methoxyethyl)-4,5,6,7-tetrahydro-3aH-pyrazolo[3,4-c]pyridin-3-yl)methanone]: the concentration for half-maximal inhibition (IC50) on RBP4-TTR interaction stood at 1.62 nM.
